Measured values: ChEMBL document CHEMBL2046323, “Synthesis, structure-activity relationship studies, and X-ray crystallographic analysis of arylsulfonamides as potent carbonic anhydrase inhibitors” (J Med Chem, 2012)

Columns and labels:
Carbonic anhydrase 9 = Carbonic anhydrase 9 (Homo sapiens, UniProt Q16790)
Carbonic anhydrase 1 = Carbonic anhydrase 1 (Homo sapiens, UniProt P00915)
Carbonic anhydrase 2 = Carbonic anhydrase 2 (Homo sapiens, UniProt P00918)
Carbonic anhydrase 7 = Carbonic anhydrase 7 (Homo sapiens, UniProt P43166)
Chain of Carbonic anhydrase 7 (P43166 whole entry): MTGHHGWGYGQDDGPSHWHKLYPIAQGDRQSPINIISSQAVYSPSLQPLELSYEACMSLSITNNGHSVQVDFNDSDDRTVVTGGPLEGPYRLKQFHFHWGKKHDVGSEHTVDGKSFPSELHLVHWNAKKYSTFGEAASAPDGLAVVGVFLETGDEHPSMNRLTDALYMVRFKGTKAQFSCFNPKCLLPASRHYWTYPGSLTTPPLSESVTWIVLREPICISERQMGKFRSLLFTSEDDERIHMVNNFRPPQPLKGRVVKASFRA

Carbonic anhydrase 14 = Carbonic anhydrase 14 (Homo sapiens, UniProt Q9ULX7)
Chain of Carbonic anhydrase 14 (Q9ULX7 whole entry): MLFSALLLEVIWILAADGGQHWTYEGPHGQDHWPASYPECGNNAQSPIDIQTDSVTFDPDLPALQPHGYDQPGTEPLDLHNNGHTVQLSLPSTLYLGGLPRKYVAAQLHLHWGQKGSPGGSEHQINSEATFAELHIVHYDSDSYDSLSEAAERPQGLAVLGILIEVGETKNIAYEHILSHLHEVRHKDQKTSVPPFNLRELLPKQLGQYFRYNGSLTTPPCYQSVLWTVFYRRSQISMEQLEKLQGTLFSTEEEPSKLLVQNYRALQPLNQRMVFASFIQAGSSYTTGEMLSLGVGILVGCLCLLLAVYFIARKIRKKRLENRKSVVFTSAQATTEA

Chain of Carbonic anhydrase 1 (P00915 whole entry): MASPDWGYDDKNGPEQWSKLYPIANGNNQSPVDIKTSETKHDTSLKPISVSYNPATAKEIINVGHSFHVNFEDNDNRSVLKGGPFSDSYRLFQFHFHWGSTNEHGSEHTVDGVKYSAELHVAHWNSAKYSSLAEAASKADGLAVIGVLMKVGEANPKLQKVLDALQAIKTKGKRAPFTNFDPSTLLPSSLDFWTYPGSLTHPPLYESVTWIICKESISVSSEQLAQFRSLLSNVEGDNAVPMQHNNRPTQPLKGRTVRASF

Ki (Carbonic anhydrase 9) | SMILES | other results
76 nM | COc1cc2c(cc1OC)C(c1ccc(S(N)(=O)=O)cc1)N(S(N)(=O)=O)CC2 (configuration not stated) | 
6.5 nM | COc1ccc2c(c1)CCN(S(N)(=O)=O)C2c1ccc(S(N)(=O)=O)cc1 (configuration not stated) | 
18.3 nM | COc1ccc2c(c1)CCN=C2c1ccc(S(N)(=O)=O)cc1 | 
68.3 nM | NS(=O)(=O)c1ccc(C2NCCc3cc(O)ccc32)cc1 (configuration not stated) | 
7.9 nM | NS(=O)(=O)c1ccc(C2c3ccc(O)cc3CCN2S(N)(=O)=O)cc1 (configuration not stated) | 
8.1 nM | CCOc1cccc(CCNC(=O)c2ccc(S(N)(=O)=O)cc2)c1 | 
130 nM | COc1cc2c(cc1OC)C(c1ccc(S(N)(=O)=O)cc1)NCC2 (configuration not stated) | 
3.8 nM | COc1ccc(CCNC(=O)c2ccc(S(N)(=O)=O)cc2)cc1OC | 
52.1 nM | CCOc1ccc2c(c1)CCN(S(N)(=O)=O)C2c1ccc(S(N)(=O)=O)cc1 (configuration not stated) | 
9.2 nM | CCOc1ccc2c(c1)CCNC2c1ccc(S(N)(=O)=O)cc1 (racemic) | 
9.2 nM | CCCOc1ccc2c(c1)CCNC2c1ccc(S(N)(=O)=O)cc1 (racemic) | 
210 nM | COc1cc2c(cc1OC)C(c1ccc(S(N)(=O)=O)cc1)=NCC2 | 
41.7 nM | NS(=O)(=O)c1ccc(C(=O)NCCc2cccc(O)c2)cc1 | 
7.2 nM | CCOc1ccc2c(c1)CCN=C2c1ccc(S(N)(=O)=O)cc1 | Ki (Carbonic anhydrase 1): 1050 nM; Ki (Carbonic anhydrase 2): 87.5 nM; Ki (Carbonic anhydrase 7): 6.5 nM; Ki (Carbonic anhydrase 14): 17.9 nM
16.1 nM | CCCOc1ccc2c(c1)CCN=C2c1ccc(S(N)(=O)=O)cc1 | Ki (Carbonic anhydrase 1): 83.1 nM; Ki (Carbonic anhydrase 2): 8.8 nM; Ki (Carbonic anhydrase 7): 8 nM; Ki (Carbonic anhydrase 14): 8.7 nM
51.5 nM | NS(=O)(=O)c1ccc(C2=NCCc3cc(O)ccc32)cc1 | 
15.4 nM | COc1ccc2c(c1)CCNC2c1ccc(S(N)(=O)=O)cc1 (racemic) | 
6.5 nM | COc1cccc(CCNC(=O)c2ccc(S(N)(=O)=O)cc2)c1 | 

SMILES | Ki (Carbonic anhydrase 9) | other results
CCCOc1cccc(CCNC(=O)c2ccc(S(N)(=O)=O)cc2)c1 | 8.3 nM | 
